{"source": "patent US20110251158A1", "about": "“FULLERENE THERAPIES FOR INFLAMMATION AND INHIBITION OF BUILD-UP OF ARTERIAL PLAQUE” (Luna Innovations Incorporated, priority 2008, published 2011)", "key": {"Fyn": {"test_system": "Fyn", "experiment": "Fyn protein level in MC", "type": "cell-based, human", "settings": "pre-incubated with TGA", "experimental": "(§1) Mast cells (1×10^7 cell/condition; each condition performed in triplicate) were incubated with or without fullerene derivatives as above and incubated with or without anti-FcεRI antibodies for 10 minutes, supernatants were removed (to remove pre-formed mediators), and fresh warm medium containing anti-FcεRI antibodies (14 ml) added for 2 hours. Cells were centrifuged, the supernatant and the pellet immediately frozen and microarray performed using the Human Whole Genome OneArray™ gene expression profiling service (Phalanx Biotech Group). Separate samples, assayed in parallel were lysed and protein expression analyzed by Western blotting or flow cytometry (CD45) as described in Kepley, C. L., Pfeiffer, J., Wilson, B. W., Schwartz, L. B., and Oliver, J. M. J. Leukocyte Biol. 64, 474-483 (1998).\nDownregulation observed at the gene level was verified at the protein level for several representative molecules using Western blotting or flow cytometry."}, "LAT phosphorylation": {"test_system": "LAT phosphorylation", "experiment": "Western blotting of FcεRI-activated phospho-signaling in MC: LAT", "type": "cell-based, human", "settings": "10 μg/mL overnight", "experimental": "(§2) Cell lysate preparation and Western blotting were performed using a protocol optimized for extracting phospho-proteins from human MC. Tkaczyk, C., Metcalfe, D. D., and Gilfillan, A. M. J. Immunol. Methods 268, 239-243 (2002). Following activation, cells were lysed directly in boiling denaturing sample buffer consisting of tris-buffered saline with triton-X-100 (0.5%) and protease and phosphatase inhibitors. The cell suspension was then passed through a 20-gauge needle, boiled, and centrifuged to remove cell debris. Proteins were separated on 8% or 10% NuPage Tris-Bis gels using Licor running buffer. Western blotting was performed using Licor blocking buffer and IR800 and IR700 anti-rabbit F(ab)2 secondary Abs (1:1000). Primary Abs were from Cell Signaling Technologies or Santa Cruz unless otherwise noted. Band intensities were captured using the Odyssey Imaging System and bands quantified by measuring the number of pixels in each band using a box drawn for the same area of measurement for each separate blot. The band intensity was then normalized for loading by dividing the number of pixels in each band with the housekeeping band intensity (β-actin) performed on the same blot.\n(§3) MC were pretreated with Inos or TGA (10 μg/mL) overnight at 37° C./6% CO2. The next day washed cells were activated with or without anti-FcεRI (1 μg/mL) for the indicated times and lysed using protocols described above. Two separate 10% Tris-Glycine gels were used for sodium dodecyl sulfate polyacrylamide gel electrophoresis (SDS-PAGE) and Western blotting performed with the indicated phosphorylation-specific (i.e., phosph-Lyn) antibodies. To ensure equal loading, an antiactin antibody was used in parallel. The intensity of each band was detected and quantified using an Odyssey imaging system. Band intensities are presented as a ratio compared to antiactin band intensities probed in the same lane and presented for each time point in the colored graphs on the right side. Results are representative of three separate experiments. […]"}, "[1]": {"test_system": "PI3-kinase phosphorylation", "experiment": "Western blotting of FcεRI-activated phospho-signaling in MC: PI3-kinase", "type": "cell-based, human", "settings": "10 μg/mL overnight", "experimental": "as §2, §3"}, "Ames test": {"experiment": "Ames test", "settings": "not shown", "description": "Taken together, the derivatives described herein are not cytotoxic to several cell lines tested and appear to have no acute in vivo cytotoxic effects."}, "AKT phosphorylation": {"test_system": "AKT phosphorylation", "experiment": "Western blotting of FcεRI-activated phospho-signaling in MC: AKT", "type": "cell-based, human", "settings": "10 μg/mL overnight", "experimental": "as §2, §3"}, "[2]": {"test_system": "E74-like factor 2 (ELF-2)", "experiment": "ELF-2 gene expression (microarray) in MC", "type": "cell-based, human", "settings": "gene level", "experimental": "as §1\nIn order to examine the genes most affected by fullerene derivative preincubation the resulting values were sorted and filtered the following way. First, the mean (±SD) of the six values from each condition for each of the 30,970 genes was calculated. Second, only normalized value intensities of >100 were included so that follow up detection of protein levels would be more likely to be successful. […]"}, "Mast cells (MC)": {"test_system": "Mast cells (MC)", "experiment": "Anti-FcεRI-induced MC degranulation (β-hexosaminidase release)", "type": "cell-based, human", "settings": "for Mean percent degranulation, TGA + XL: TGA Treatment @ 10 μg/ml, Exp 1-5 and Average (±SD)", "experimental": "MC are a component of the inflammatory response. As such, cultures of human Mast Cells can be used for screening the activity of different fullerene derivatives to evaluate their potential activity in animal models. In this example, human skin tissue was received from the Cooperative Human Tissue Network and MC purified and cultured as described in Kepley, C. L. Int. Arch. Allergy Immunol. 138, 29-39 (2005). The MC were cultured in media containing stem cell factor which is removed from the culture 24 hours prior to experimentation.\nFor activation, MC were suspended in fresh medium (without cytokines) and incubated for 16 hours with or without fullerene derivatives at 37° C. in a 6% CO2 incubator. […] The next morning, cells were washed and stimulated with anti-FcεRI Abs (3B4; 1 μg/ml) for 30 minutes (β-hexosaminidase) or overnight (GM-CSF) at 37° C. in a 6% CO2 incubator and mediator release measured as described in Zhao, W., Kepley, C. L., Morel, P. A., Okumoto, L. M., Fukuoka, Y., and Schwartz, L. B. J Immunol. 177, 694-701 (2006). All MC mediator release studies were performed in triplicate.\nCells were cultured with fixed concentrations of a fullerene derivative (10 μg/ml; FIGS. 8A and 9A) or different concentrations (FIGS. 8B and 9B) for 16 h, washed and stimulated for 30 min (FIGS. 8A and 8B) or 24 hours (FIGS. 9A and 9B) with optimal concentrations of αanti-FcεRI Abs (3B4; 1 μg/ml). Cells were centrifuged and β-hexosaminidase release and GMCSF levels determined by ELISA."}}, "note": "Where “and” joins values, the source holds several entries; their conditions need not be identical. Equal values may be shown once.", "data": [{"substance": "C70-tetraglycolic acid [TGA]", "values": [{"measurement": "Fyn protein levels", "setting": "Fyn", "result": "no change"}, {"measurement": "reduced LAT phosphorylation", "setting": "LAT phosphorylation; 3 minutes", "result": 36, "unit": "%"}, {"measurement": "reduced LAT phosphorylation", "setting": "LAT phosphorylation; 5 minutes", "result": 72, "unit": "%"}, {"measurement": "reduced LAT phosphorylation", "setting": "LAT phosphorylation; 10 minutes", "result": 69, "unit": "%"}, {"measurement": "reduced PI3-kinase phosphorylation", "setting": "[1]; 3 minutes", "result": 15, "unit": "%"}, {"measurement": "reduced PI3-kinase phosphorylation", "setting": "[1]; 5 minutes", "result": 35, "unit": "%"}, {"measurement": "reduced PI3-kinase phosphorylation", "setting": "[1]; 10 minutes", "result": 50, "unit": "%"}, {"measurement": "mutagenic potential", "setting": "Ames test", "result": "No mutagenic potential"}, {"measurement": "inhibited AKT phosphorylation", "setting": "AKT phosphorylation; 3 minutes anti-FcεRI", "result": 10, "unit": "%"}, {"measurement": "inhibited AKT phosphorylation", "setting": "AKT phosphorylation; 5 minutes anti-FcεRI", "result": 36, "unit": "%"}, {"measurement": "inhibited AKT phosphorylation", "setting": "AKT phosphorylation; 10 minutes anti-FcεRI", "result": 43, "unit": "%"}, {"measurement": "ELF-2 downregulated", "setting": "[2]", "result": 47, "unit": "%"}, {"measurement": "Mean percent degranulation, TGA + XL", "setting": "Mast cells (MC)", "result": "52.7% and 39.1% and 50.1% and 53.4% and 40.1%"}, {"measurement": "Mean percent degranulation, TGA + XL", "setting": "Mast cells (MC); mean", "result": "47.1 (±6.9) percent"}, {"measurement": "IC50 (degranulation)", "setting": "Mast cells (MC); maximum inhibition set to 100%", "result": "10.9 (±3.5) μg/ml"}]}]}
